Calls of active or inactive are those of the source. The calls are words filed in the database; no cut-off is given here.
How the values were obtained:
V79 = assay: (§1) Cytotoxicity against Chinese hamster V79 cells measured after 24 hrs by MTT assay; assay type: cell-based, Cricetulus griseus; details: v79, 24 h
Plasmodium falciparum [1] = assay: Antimalarial activity against CQ-sensitive Plasmodium falciparum 3D7 assessed as parasite growth inhibition incubated for 48 hrs by SYBR Green I dye based fluorescence assay; assay type: functional, organism-based; details: 3D7, 48 h
[2] = Cytotoxicity against human THP-1 cells assessed as reduction in cell viability measured after 72 hrs by MTT assay; assay type: cell-based
Leishmania infantum [3] = assay: Antileishmanial activity against axenic amastigote stage of Leishmania infantum infected in THP-1 cells assessed as reduction in parasite growth at 10 uM incubated for 72 hrs by luminescence analysis; assay type: functional, organism-based
Trypanosoma brucei [4] = assay: Antitrypanosomal activity against bloodstream form of Trypanosoma brucei Lister 427 assessed as parasite growth inhibition incubated for 72 hrs by resazurin staining based assay; assay type: functional, organism-based; details: Lister 427, 72 h
[5] = Selectivity index, ratio of CC50 for cytotoxicity against human THP-1 cells to IC50 for antitrypanosomal activity against bloodstream form of Trypanosoma brucei Lister 427; assay type: toxicity, cell-based; details: read-out: Ratio CC50/IC50
[6] = Hemolytic activity against human erythrocytes at <=10 uM incubated for 1 hr by microplate reader assay; assay type: ADME, tissue-based; details: erythrocyte
Leishmania infantum [7] = assay: Antileishmanial activity against axenic amastigote stage of Leishmania infantum infected in THP-1 cells assessed as reduction in parasite growth incubated for 72 hrs by luminescence analysis; assay type: functional, organism-based; details: THP-1, 72 h
[8] = Selectivity index, ratio of CC50 for cytotoxicity against human THP-1 cells to IC50 for antileishmanial activity against axenic amastigote stage of Leishmania infantum infected in THP-1 cells; assay type: toxicity, cell-based; details: read-out: Ratio CC50/IC50
Trypanosoma brucei [9] = assay: Antitrypanosomal activity against bloodstream form of Trypanosoma brucei Lister 427 assessed as parasite growth inhibition at 10 uM incubated for 72 hrs by resazurin staining based assay; assay type: functional, organism-based
[10] = as §1; assay type: cell-based, Cricetulus griseus; details: V79 cells, read-out: LD50
[11] = Selectivity index, ratio of LD50 for cytotoxicity against Chinese hamster V79 cells to IC50 for antimalarial activity against CQ-sensitive Plasmodium falciparum 3D7; assay type: toxicity, cell-based; details: V79 cells versus Plasmodium falciparum 3D7, read-out: Ratio LD50/IC50
[12] = Hemolytic activity against human erythrocytes at 0.04 to 10 uM incubated for 1 hr by microplate reader assay; assay type: ADME, tissue-based, Erythrocyte; details: dose 0.04-10 µM, read-out: Activity
Hemozoin [13] = assay: Inhibition of Beta-hematin formation at 12 to 48 uM after 24 hrs by microplate reader assay; details: dose 12-48 µM
Hemozoin [14] = assay: Inhibition of Beta-hematin formation at 24 to 96 uM after 24 hrs by microplate reader assay; details: dose 24-96 µM
HepG2 = assay: Cytotoxicity against human HepG2 cells; assay type: cell-based
Plasmodium falciparum [15] = assay: Antiplasmodial activity against Plasmodium falciparum 3D7 infected in erythrocytes assessed as parasite growth inhibition measured after 72 hrs by LDH assay; assay type: functional, organism-based; details: 3D7, Erythrocyte

Compound: C[C@H]1NC(=O)[C@@H](Cc2c[nH]c3ccccc23)n2c1nc1ccccc1c2=O [FUMIQUINAZOLINE G]
- LD50 (V79): Not Active
- IC50 (Plasmodium falciparum [1]): 3.68 µM

Compound: CC(C)C[C@@H]1NC(=O)[C@@H](Cc2c[nH]c3ccccc23)n2c1nc1ccc(Cl)cc1c2=O
- LD50 (V79): Not Active
- IC50 (Plasmodium falciparum [1]): > 10 µM

Compound: O=C1N[C@@H](Cc2ccc(OCc3ccccc3)cc2)c2nc3cc(Cl)c(Cl)cc3c(=O)n2[C@@H]1Cc1c[nH]c2ccccc12
- LD50 (V79): Not Active
- CC50 at 72 h [2]: > 100 µM
- inhibition (Leishmania infantum [3]): inactive
- IC50 (Plasmodium falciparum [1]): 4 µM
- IC50 (Trypanosoma brucei [4]): 3.9 µM
- selectivity ratio [5]: > 25.6

Compound: CCN(CC)CCCC(C)Nc1ccnc2cc(Cl)ccc12 (stereo not drawn) [CHLOROQUINE]
- Activity [6]: Non-Toxic

Compound: CC(C)C[C@H]1NC(=O)[C@@H](Cc2c[nH]c3ccccc23)n2c1nc1ccccc1c2=O
- LD50 (V79): Not Active
- CC50 at 72 h [2]: 25 µM
- IC50 (Leishmania infantum [7]): 2.6 µM
- IC50 (Plasmodium falciparum [1]): 0.47 µM
- IC50 (Trypanosoma brucei [4]): 0.38 µM
- selectivity ratio [8]: 9.6
- selectivity ratio [5]: 65.7

Compound: CC[C@H](C)[C@@H]1NC(=O)[C@@H](Cc2c[nH]c3ccccc23)n2c1nc1ccc(Br)cc1c2=O
- LD50 (V79): Not Active
- CC50 at 72 h [2]: 50 µM
- IC50 (Leishmania infantum [7]): 7.8 µM
- IC50 (Plasmodium falciparum [1]): > 10 µM
- IC50 (Trypanosoma brucei [4]): 5.3 µM
- selectivity ratio [8]: 6.4
- selectivity ratio [5]: 9.4

Compound: CC[C@H](C)[C@@H]1NC(=O)[C@@H](Cc2c[nH]c3ccccc23)n2c1nc1ccc(Cl)cc1c2=O
- LD50 (V79): Not Active
- IC50 (Plasmodium falciparum [1]): > 10 µM

Compound: COc1ccc2nc3n(c(=O)c2c1)[C@H](Cc1c[nH]c2ccccc12)C(=O)N[C@H]3CC(C)C
- LD50 (V79): Not Active
- CC50 at 72 h [2]: > 100 µM
- inhibition (Leishmania infantum [3]): inactive
- IC50 (Plasmodium falciparum [1]): > 10 µM
- inhibition (Trypanosoma brucei [9]): inactive

Compound: CC(C)[C@H]1NC(=O)[C@@H](Cc2c[nH]c3ccccc23)n2c1nc1ccccc1c2=O
- LD50 (V79): Not Active
- CC50 at 72 h [2]: > 100 µM
- inhibition (Leishmania infantum [3]): inactive
- IC50 (Plasmodium falciparum [1]): 0.15 µM
- IC50 (Trypanosoma brucei [4]): 7.1 µM
- selectivity ratio [5]: > 14.1

Compound: CC(C)C[C@@H]1NC(=O)[C@@H](Cc2c[nH]c3ccccc23)n2c1nc1cc(-c3nnnn3C)ccc1c2=O
- LD50 (V79): Not Active
- CC50 at 72 h [2]: > 50 µM
- inhibition (Leishmania infantum [3]): inactive
- IC50 (Plasmodium falciparum [1]): 1.02 µM
- inhibition (Trypanosoma brucei [9]): inactive

Compound: CC[C@H](C)[C@@H]1NC(=O)[C@@H](Cc2c[nH]c3ccccc23)n2c1nc1cc(Cl)c(Cl)cc1c2=O
- LD50 (V79): Not Active
- CC50 at 72 h [2]: 50 µM
- inhibition (Leishmania infantum [3]): inactive
- IC50 (Plasmodium falciparum [1]): 1.51 µM
- IC50 (Trypanosoma brucei [4]): 5.8 µM
- selectivity ratio [5]: 8.6

Compound: N=C(N)c1ccc(OCCCCCOc2ccc(C(=N)N)cc2)cc1 [PENTAMIDINE]
- CC50 at 72 h [2]: > 10 µM
- inhibition (Leishmania infantum [3]): inactive

Compound: CC(C)C[C@@H]1NC(=O)[C@@H](Cc2c[nH]c3ccccc23)n2c1nc1ccc(O)cc1c2=O
- LD50 (V79): Not Active
- CC50 at 72 h [2]: > 100 µM
- inhibition (Leishmania infantum [3]): inactive
- IC50 (Plasmodium falciparum [1]): 0.73 µM
- IC50 (Trypanosoma brucei [4]): 8.6 µM
- selectivity ratio [5]: > 11.6

Compound: CC(C)C[C@@H]1NC(=O)[C@@H](Cc2c[nH]c3ccccc23)n2c1nc1cnccc1c2=O
- LD50 (V79): Not Active
- CC50 at 72 h [2]: > 100 µM
- inhibition (Leishmania infantum [3]): inactive
- IC50 (Plasmodium falciparum [1]): 4 µM
- inhibition (Trypanosoma brucei [9]): inactive

Compound: CC(C)C[C@@H]1NC(=O)[C@@H](Cc2c[nH]c3ccccc23)n2c1nc1ccccc1c2=O
- CC50 at 24 h [10]: 1780 nM
- Activity [6]: Non-Toxic
- CC50 at 72 h [2]: > 100 µM
- inhibition (Leishmania infantum [3]): inactive
- IC50 (Plasmodium falciparum [1]): 0.05 µM
- selectivity ratio [11]: 34
- inhibition (Trypanosoma brucei [9]): inactive
- hemolysis at 1 h, up to 10 µM [12]: < 6%
- inhibition (Hemozoin [13]): inactive

Compound: O=C1N[C@H](Cc2ccc(OCc3ccccc3)cc2)c2nc3ccccc3c(=O)n2[C@H]1Cc1c[nH]c2ccccc12
- LD50 (V79): Not Active
- CC50 at 72 h [2]: > 100 µM
- inhibition (Leishmania infantum [3]): inactive
- IC50 (Plasmodium falciparum [1]): > 10 µM
- IC50 (Trypanosoma brucei [4]): 1.6 µM
- selectivity ratio [5]: > 62.5

Compound: CC(C)C[C@@H]1NC(=O)[C@@H](Cc2c[nH]c3ccccc23)n2c1nc1cc(Cl)c(Cl)cc1c2=O
- CC50 at 24 h [10]: 14000 nM
- Activity [6]: Non-Toxic
- CC50 at 72 h [2]: 25 µM
- inhibition (Leishmania infantum [3]): inactive
- inhibition (Hemozoin [14]): inactive
- IC50 (Plasmodium falciparum [1]): 0.2 µM
- selectivity ratio [11]: 70
- IC50 (Trypanosoma brucei [4]): 5.9 µM
- hemolysis at 1 h, up to 10 µM [12]: < 6%
- selectivity ratio [5]: 4.2

Compound: Clc1ccc2nccc(N3CCC(CN4CCC(c5c[nH]c6ccccc56)CC4)CC3)c2c1
- EC50 (HepG2): > 10 µM
- EC50 (Plasmodium falciparum [15]): 34 nM

Compound: CC(C)C[C@@H]1NC(=O)[C@@H](Cc2c[nH]c3ccccc23)n2c1nc1ccc(I)cc1c2=O
- LD50 (V79): Not Active
- CC50 at 72 h [2]: 50 µM
- IC50 (Leishmania infantum [7]): 7.4 µM
- IC50 (Plasmodium falciparum [1]): > 10 µM
- IC50 (Trypanosoma brucei [4]): 4.1 µM
- selectivity ratio [8]: 6.7
- selectivity ratio [5]: 12.2

Compound: CC(C)[C@@H]1NC(=O)[C@@H](Cc2c[nH]c3ccccc23)n2c1nc1ccccc1c2=O
- CC50 at 24 h [10]: 1910 nM
- Activity [6]: Non-Toxic
- CC50 at 72 h [2]: > 100 µM
- inhibition (Leishmania infantum [3]): inactive
- IC50 (Plasmodium falciparum [1]): 0.1 µM
- selectivity ratio [11]: 19
- inhibition (Trypanosoma brucei [9]): inactive
- hemolysis at 1 h, up to 10 µM [12]: < 6%
- inhibition (Hemozoin [13]): inactive

Compound: Cc1ccc2nc3n(c(=O)c2c1)[C@H](Cc1c[nH]c2ccccc12)C(=O)N[C@H]3CC(C)C
- LD50 (V79): Not Active
- CC50 at 72 h [2]: > 100 µM
- inhibition (Leishmania infantum [3]): inactive
- IC50 (Plasmodium falciparum [1]): > 10 µM
- inhibition (Trypanosoma brucei [9]): inactive

Compound: CC(C)C[C@@H]1NC(=O)[C@H](Cc2c[nH]c3ccccc23)n2c1nc1ccccc1c2=O
- LD50 (V79): Not Active
- CC50 at 72 h [2]: 50 µM
- inhibition (Leishmania infantum [3]): inactive
- IC50 (Plasmodium falciparum [1]): > 10 µM
- inhibition (Trypanosoma brucei [9]): inactive

Compound: CCCCCCCCCCCCCCCCOP(=O)([O-])OCC[N+](C)(C)C [MILTEFOSINE]
- CC50 at 72 h [2]: 28.8 µM
- IC50 (Leishmania infantum [7]): 1 µM
- inhibition (Trypanosoma brucei [9]): inactive
- selectivity ratio [8]: 28.8

Compound: CC(C)[C@H]1NC(=O)[C@H](Cc2c[nH]c3ccccc23)n2c1nc1ccccc1c2=O
- LD50 (V79): Not Active
- CC50 at 72 h [2]: > 100 µM
- inhibition (Leishmania infantum [3]): inactive
- IC50 (Plasmodium falciparum [1]): > 10 µM
- inhibition (Trypanosoma brucei [9]): inactive

Compound: CC(C)[C@@H]1NC(=O)[C@H](Cc2c[nH]c3ccccc23)n2c1nc1ccccc1c2=O
- LD50 (V79): Not Active
- CC50 at 72 h [2]: > 100 µM
- inhibition (Leishmania infantum [3]): inactive
- IC50 (Plasmodium falciparum [1]): > 10 µM
- IC50 (Trypanosoma brucei [4]): 4.6 µM
- selectivity ratio [5]: > 21.7

Compound: CC(C)C[C@@H]1NC(=O)[C@@H](Cc2c[nH]c3ccccc23)n2c1nc1cc(I)c(I)cc1c2=O
- LD50 (V79): Not Active
- IC50 (Plasmodium falciparum [1]): > 10 µM

Compound: CSCC[C@@H]1NC(=O)[C@@H](Cc2c[nH]c3ccccc23)n2c1nc1ccccc1c2=O
- LD50 (V79): Not Active
- IC50 (Plasmodium falciparum [1]): > 10 µM

Compound: CC[C@H](C)[C@@H]1NC(=O)[C@@H](Cc2c[nH]c3ccccc23)n2c1nc1ccccc1c2=O
- LD50 (V79): Not Active
- IC50 (Plasmodium falciparum [1]): > 10 µM

Compound: CC(C)C[C@H]1NC(=O)[C@H](Cc2c[nH]c3ccccc23)n2c1nc1ccccc1c2=O
- LD50 (V79): Not Active
- CC50 at 72 h [2]: > 100 µM
- inhibition (Leishmania infantum [3]): inactive
- IC50 (Plasmodium falciparum [1]): 2 µM
- inhibition (Trypanosoma brucei [9]): inactive

Compound: CC(C)C[C@@H]1NC(=O)[C@@H](Cc2c[nH]c3ccccc23)n2c1nc1ncccc1c2=O
- LD50 (V79): Not Active
- CC50 at 72 h [2]: > 100 µM
- inhibition (Leishmania infantum [3]): inactive
- IC50 (Plasmodium falciparum [1]): 3.76 µM
- inhibition (Trypanosoma brucei [9]): inactive

Compound: O=C1N[C@@H](Cc2c[nH]c3ccccc23)c2nc3ccccc3c(=O)n2[C@@H]1Cc1c[nH]c2ccccc12
- LD50 (V79): Not Active
- IC50 (Plasmodium falciparum [1]): > 10 µM

Compound: O=C1N[C@H](Cc2ccc(O)cc2)c2nc3ccccc3c(=O)n2[C@H]1Cc1c[nH]c2ccccc12
- LD50 (V79): Not Active
- CC50 at 72 h [2]: > 100 µM
- inhibition (Leishmania infantum [3]): inactive
- IC50 (Plasmodium falciparum [1]): 4.18 µM
- inhibition (Trypanosoma brucei [9]): inactive

Source: ChEMBL document CHEMBL5036370, “Indole-Containing Pyrazino[2,1-b]quinazoline-3,6-diones Active against Plasmodium and Trypanosomatids” (ACS Med Chem Lett, 2022)
